From patent publication US5747661A, “Retinoid-inducible response elements” (Howard Hughes Medical Institute)
“Also recorded” adds a separate entry of the source.

T1: GAL4-RAR (Homo sapiens, UniProt P10276)
T1 construct: hRARα 185-462; expressed in transfected cells; host or cells: CV-1
T1 sequence (P10276 185-462): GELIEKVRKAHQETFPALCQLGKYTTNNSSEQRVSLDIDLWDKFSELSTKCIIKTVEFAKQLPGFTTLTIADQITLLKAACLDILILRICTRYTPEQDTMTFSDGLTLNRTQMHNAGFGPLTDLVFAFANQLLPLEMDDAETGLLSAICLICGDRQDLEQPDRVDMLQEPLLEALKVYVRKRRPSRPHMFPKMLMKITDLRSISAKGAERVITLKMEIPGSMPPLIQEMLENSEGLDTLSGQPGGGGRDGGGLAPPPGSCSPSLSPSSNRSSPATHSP

T2: GAL4-LXR (Homo sapiens, UniProt Q13133)
T2 construct: hLXRα 166-447; expressed in transfected cells; host or cells: CV-1
T2 sequence (Q13133 166-447): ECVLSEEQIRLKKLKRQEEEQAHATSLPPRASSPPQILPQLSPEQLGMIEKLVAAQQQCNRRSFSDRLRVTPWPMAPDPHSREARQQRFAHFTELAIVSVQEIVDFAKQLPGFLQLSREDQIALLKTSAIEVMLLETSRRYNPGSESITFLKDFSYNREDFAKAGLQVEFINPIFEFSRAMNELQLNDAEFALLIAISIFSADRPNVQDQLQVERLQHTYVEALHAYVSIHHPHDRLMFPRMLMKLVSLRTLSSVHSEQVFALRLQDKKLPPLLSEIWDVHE

B1: LXRE (ΔMTV) (dsDNA)
DNA 1: CTTGCGGTTCCCAGGGTTTAAATAAGTTCA
DNA 2: TGAACTTATTTAAACCCTGGGAACCGCAAG

Assays:
hLXRα = experiment: CV-1 cotransfection assay, hLXRα expression plasmid with LXRE luciferase reporter (TK-LXRE3-LUC / TK-LXRE2-LUC); type: cell-based, human; conditions: for LXRα activation of LXRE-containing luciferase reporter (TK-LXRE3-LUC): CV-1 cells, hLXRα transfected alone, 10^-5 M 9cRA, 10^-5 M TTNPB, 10^-4 M methoprene acid, harvested 36 hours after ligand
Description: (§1) CV-1 cells were maintained at 37° C., 5% CO2 in DMEM containing 5% calf bovine serum (CBS). Transfections were performed in 8-well plates in media containing 5% dextran-charcoal stripped CBS by the calcium phosphate coprecipitation technique as described previously (Mangelsdorf et al., (1990) supra). Eight hours after transfections ligands were delivered to cells at 10^3 -fold dilutions (0.1% vol/vol of solvent in media). Retinoids (gifts from Marcus Boehm at Ligand Pharmaceuticals, Inc.) were manipulated under gold light and stored dark in ethanol or methanol under nitrogen gas at -80° C. Cells were harvested 36 hours after addition of ligand and analyzed for luciferase and β-galactosidase activity using a Dynatech microtiter plate Model ML3000 luminometer and a Model MR5000 spectrophotometer, respectively.
(§2) For most experiments, cotransfection of DNA into mammalian cells was accomplished with 50 ng reporter plasmid, 50 ng RSV- or CMX-βgal, 25 ng of each receptor expression plasmid and pGEM carrier to give 375 ng DNA/well. For controls, the empty CMX vector was used in place of the receptor cDNA. For the GAL4-receptor chimera experiments, 30 ng receptor and 80 ng of reporter plasmid were used. For GAL4 and VP16 chimera interaction assays, 30 ng of GAL4-LXRα and 15 ng of the VP16-RAR or -RXR were used along with 80 ng of the reporter plasmid. All transfection data points were normalized using an internal β-galactosidase marker (Mangelsdorf et al., (1990) supra) and represent the mean of duplicate or triplicate assays.
To identify a potential ligand for the orphan receptor LXRα, a cell-based cotransfection screening assay similar to that used to successfully identify the RXR ligand (see Mangelsdorf et al., (1990) supra; Heyman et al., in Cell68:397-406 (1992)) was employed. Initially an LXR responsive gene was unknown, therefore the preliminary experiments were designed to first identify an LXR-specific DNA binding sequence that could serve as an LXR responsive element (referred to as an LXRE). […] Thus, an assay system was established by transfecting CV-1 cells with an expression plasmid harboring the cDNA for LXRα and the luciferase reporter plasmid TK-LXRE3-LUC (see FIG. 2a). TK-LXRE3-LUC contains three copies of the LXRE defined herein; TK-CRBPII-LUC contains the RXRE from the rat CRBPII promoter (Mangelsdorf et al., (1991) supra)); TK-βRE-LUC contains the RAR response element from the mouse RARβ2 promoter (Sucov et al., (1990) supra). Luciferase activity is expressed in relative light units (RLU) and represents the mean of triplicate assays (±SEM) normalized to βgal as an internal standard.
Thus, expression plasmids for hLXRα, hRXRα, or no receptor (-) were cotransfected into CV1 cells in combination with the reporter plasmids TK-LUC or TK-LXRE2-LUC as indicated. […]

GAL4-RAR = target: T1, GAL4-RAR; experiment: GAL4-receptor chimera ligand activation, GAL4-RAR with TK-MH100x4-LUC in CV1 cells; type: cell-based; conditions: 10^-5 M 9cRA, 10^-5 M TTNPB, 10^-4 M methoprene acid, FIG. 3c
Description: (§3) FIG. 3C illustrates the ligand specificity of the GAL4-receptor chimeras. […] In both 3B and 3C, CV1 cells were cotransfected as described previously with CMX vectors driving expression of the indicated hybrid proteins and the reporter plasmid TK-MH100x4-LUC, which contains four copies of the GAL4 DNA upstream activation sequence. In FIG. 3C, ligands were added as described with reference to FIG. 2. Luciferase activity is expressed as RLUs (relative light units) corrected for transfection efficiency using an internal […] standard and represents the mean of triplicate assays (±SEM).
(§4) The hLXRα cDNA insert was excised from the plasmid pXR2ΔRV with Kpn1 and BamHI and ligated into the expression vectors RSV and CMX. […] The cDNAs encoding the ligand-binding domain (LBD) of each of the receptors were then ligated into the polylinker to create GAL4-LBD fusions.
(§5) Such heterologous system provides an effective means for directly assaying receptor/ligand interactions, even in the presence of endogenous wild-type receptors.

GAL4-LXR = target: T2, GAL4-LXR; experiment: GAL4-receptor chimera ligand activation, GAL4-LXR with TK-MH100x4-LUC in CV1 cells; type: cell-based; conditions: 10^-5 M 9cRA, 10^-5 M TTNPB, 10^-4 M methoprene acid, FIG. 3c
Description: as §3
Construction of wild-type receptor inserted into the expression vectors RSV and CMX, have been detailed elsewhere (Gigueere et al., in Cell46:645-652 (1986); Umesono et al., in Cell65:1255-1266 (1991); Mangelsdorf et al., (1990) supra). The hLXRα cDNA insert was excised from the plasmid pXR2ΔRV with Kpn1 and BamHI and ligated into the expression vectors RSV and CMX. Chimeric Gal4-receptor expression plasmids (e.g. CMX-GAL4-LXRα) were constructed by first ligating the GAL4 portion of pSG424 (Sadowski and Ptashne, in Nucleic Acids Res. 17:[…] (1989)) into the HindIII/SacI sites of pCMX (Umesono et al., in Cell 65:1255-1266 (1991)) to create pCMX-GAL4. This vector contains the CMV promoter fused to the coding sequence for GAL4 (1-147), followed by inframe polylinker cloning sites and translational stop codons. The cDNAs encoding the ligand-binding domain (LBD) of each of the receptors were then ligated into the polylinker to create GAL4-LBD fusions.
The following receptor amino acid sequences were used for these constructions and their corresponding DNA sequences ligated into pCMX-GAL4:hLXRα 166-447, hRXRα 203-462 and hRARα 185-462.
To address the possibility that the retinoid response elicited by LXRα was through the direct interaction of ligand with the putative ligand binding domain of LXRα, ligand activation experiments were performed with the GAL4-receptor hybrids. […]

RARs = conditions: from the literature; cited from earlier work
RXRs = conditions: from the literature; cited from earlier work
hRXRα [1] = target: T3, hRXRα (Homo sapiens, UniProt P19793); experiment: CV-1 cotransfection assay, hRXRα expression plasmid with RXRE luciferase reporter TK-CRBPII-LUC; type: cell-based; conditions: CV1 cells, 10^-4 M methoprene acid, FIG. 2d
T3 construct: Construction of wild-type receptor inserted into the expression vectors RSV and CMX; expressed in transfected cells; host or cells: CV-1
Description: as §1
as §2, with “All transfection data points were normalized using an internal β-galactosidase marker (Mangelsdorf et al., (1990) supra) and represent the mean of duplicate or triplicate assays.” left out

hRARα = target: T4, hRARα (Homo sapiens, UniProt P10276); experiment: CV-1 cotransfection assay with RAR response element luciferase reporter (TK-βRE-LUC); type: cell-based; conditions: CV1 cells; 10^-5 M TTNPB, 10^-4 M methoprene acid; occurs also without transfected RAR or RXR
T4 construct: Construction of wild-type receptor inserted into the expression vectors RSV and CMX; expressed in transfected cells; host or cells: CV-1
Description: as §1
as §2, with “All transfection data points were normalized using an internal β-galactosidase marker (Mangelsdorf et al., (1990) supra) and represent the mean of duplicate or triplicate assays.” left out

GAL4-RXR = target: T5, GAL4-RXR (Homo sapiens, UniProt P19793); experiment: GAL4-receptor chimera ligand activation, GAL4-RXR with TK-MH100x4-LUC in CV1 cells; type: cell-based; conditions: 10^-5 M 9cRA, 10^-5 M TTNPB, 10^-4 M methoprene acid, FIG. 3c
T5 construct: hRXRα 203-462; expressed in transfected cells; host or cells: CV-1
Description: as §3, §4, §5

LXR/RXR heterodimer = target: T6, LXR/RXR heterodimer (Homo sapiens, UniProt P19793); experiment: CV1 cotransfection of both hLXRα and hRXRα with LXRE reporter TK-LXRE2-LUC; type: cell-based; conditions: CV1 cells, 25 ng hLXRα:2.5 ng hRXRα; 10^-4 M methoprene acid; FIG. 4
T6 construct: Construction of wild-type receptor inserted into the expression vectors RSV and CMX; expressed in transfected cells; host or cells: CV-1
Description: Thus, expression plasmids for hLXRα, hRXRα, or no receptor (-) were cotransfected into CV1 cells in combination with the reporter plasmids TK-LUC or TK-LXRE2-LUC as indicated. Cells were then incubated with ethanol control (-) or […] methoprene acid (+) and assayed for luciferase activity as described above. TK-LXRE2-LUC contains two copies of the LXRE. In experiments in which LXR and RXR plasmids were cotransfected together the ratio of the two expression plasmids was 1:0.1 (25 ng hLXRα:2.5 ng hRXRα). In all other experiments were LXR and RXR were added alone, the amount of each receptor expression plasmid was 25 ng.

hRXRα [2] = target: T3, hRXRα; experiment: CV1 cotransfection of hRXRα alone with LXRE luciferase reporter; type: cell-based; conditions: CV1 cells, 25 ng hRXRα; 10^-4 M methoprene acid; FIG. 4
Description: as §1
as §2, with “All transfection data points were normalized using an internal β-galactosidase marker (Mangelsdorf et al., (1990) supra) and represent the mean of duplicate or triplicate assays.” left out

LXRα/RXRα heterodimer = LXRα/RXRα heterodimer (Homo sapiens, UniProt Q13133;P19793 Q13133:1-447,P19793:1-462); experiment: EMSA; strong complex; supershifted by anti-RXRα; 75 mM KCl, 20 mM Hepes pH 7.4; conditions: tags: none; coupled in vitro transcription/translation (Promega); label: 32P; HindIII overhangs
Description: (§6) For EMSA experiments, receptor proteins were generated using a coupled in vitro transcription/translation system according to the manufacturer's instructions (Promega). Sequences of double-stranded oligonucleotides were as shown in the figures and text and were synthesized with HindIII overhangs. Binding reactions were performed in a total volume of 20 μl consisting of 75 mM KCl, 20 mM Hepes, pH 7.4, 2 mM DTT, 7.5% glycerol, 0.1% NP-40, 2
(§7) MG poly (dI-dC) (Pharmacia), 40 pmol of a non-specific single-stranded oligonucleotide (for removal of non-specific binding in the lysates), and 2 μl of receptor lysates or unprogrammed (control) lysates. Reactions containing lysates and competing oligonucleotides were incubated for 30 minutes on ice followed by the addition of 40 fmol of ^32P-labeled oligonucleotide probe (labeled by end-filling) and further incubated for 20 minutes at room temperature. Samples were then analyzed on 5% polyacrylamide gels run in 0.5X TBE buffer. For antibody supershifting experiments, 1 μl of anti-hRXRα antiserum (a gift from Jacki Dyck), or non-specific antiserum was added to the reactions after addition of the radiolabeled probe and incubated at room temperature for 10 minutes, followed by gel electrophoresis.

RXRα = RXRα (Homo sapiens, UniProt P19793 P19793:1-462); experiment: EMSA; RXRα alone; conditions: label: 32P; HindIII overhangs
Description: as §6, §7

T3 sequence (P19793 whole entry): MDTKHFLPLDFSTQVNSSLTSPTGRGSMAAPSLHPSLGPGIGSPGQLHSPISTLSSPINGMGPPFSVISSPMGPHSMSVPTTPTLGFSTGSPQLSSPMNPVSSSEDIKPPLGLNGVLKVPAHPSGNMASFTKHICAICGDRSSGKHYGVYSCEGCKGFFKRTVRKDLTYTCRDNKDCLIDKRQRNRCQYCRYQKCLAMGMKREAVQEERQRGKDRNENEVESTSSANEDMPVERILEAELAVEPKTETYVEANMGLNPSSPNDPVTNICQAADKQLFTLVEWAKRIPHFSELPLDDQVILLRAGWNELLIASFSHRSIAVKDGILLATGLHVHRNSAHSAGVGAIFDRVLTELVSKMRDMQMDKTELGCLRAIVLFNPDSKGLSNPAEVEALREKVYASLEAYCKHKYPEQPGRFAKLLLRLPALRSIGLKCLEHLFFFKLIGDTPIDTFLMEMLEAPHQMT
T6 sequence (Q13133 whole entry A196R): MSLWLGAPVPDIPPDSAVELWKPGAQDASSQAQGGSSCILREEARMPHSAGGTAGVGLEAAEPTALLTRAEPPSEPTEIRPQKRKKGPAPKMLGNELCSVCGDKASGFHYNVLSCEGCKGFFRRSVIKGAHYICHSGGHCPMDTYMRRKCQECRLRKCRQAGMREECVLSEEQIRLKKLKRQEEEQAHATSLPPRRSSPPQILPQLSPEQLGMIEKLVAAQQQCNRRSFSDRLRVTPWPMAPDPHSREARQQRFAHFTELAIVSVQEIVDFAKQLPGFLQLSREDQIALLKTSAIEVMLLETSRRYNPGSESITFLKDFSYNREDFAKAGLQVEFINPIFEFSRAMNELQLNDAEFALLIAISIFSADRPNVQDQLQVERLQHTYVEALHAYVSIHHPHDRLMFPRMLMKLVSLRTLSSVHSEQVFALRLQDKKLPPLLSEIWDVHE
T6 sequence (P19793 whole entry): as the sequence (P19793 whole entry) above
T5 sequence (P19793 203-462): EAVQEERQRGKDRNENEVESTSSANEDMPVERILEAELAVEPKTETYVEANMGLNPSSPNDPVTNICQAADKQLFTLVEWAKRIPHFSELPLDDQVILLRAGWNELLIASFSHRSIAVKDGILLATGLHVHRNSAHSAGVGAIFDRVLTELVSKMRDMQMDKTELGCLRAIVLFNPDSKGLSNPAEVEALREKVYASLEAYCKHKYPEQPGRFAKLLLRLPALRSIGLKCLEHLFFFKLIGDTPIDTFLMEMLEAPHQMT
T4 sequence (P10276 whole entry): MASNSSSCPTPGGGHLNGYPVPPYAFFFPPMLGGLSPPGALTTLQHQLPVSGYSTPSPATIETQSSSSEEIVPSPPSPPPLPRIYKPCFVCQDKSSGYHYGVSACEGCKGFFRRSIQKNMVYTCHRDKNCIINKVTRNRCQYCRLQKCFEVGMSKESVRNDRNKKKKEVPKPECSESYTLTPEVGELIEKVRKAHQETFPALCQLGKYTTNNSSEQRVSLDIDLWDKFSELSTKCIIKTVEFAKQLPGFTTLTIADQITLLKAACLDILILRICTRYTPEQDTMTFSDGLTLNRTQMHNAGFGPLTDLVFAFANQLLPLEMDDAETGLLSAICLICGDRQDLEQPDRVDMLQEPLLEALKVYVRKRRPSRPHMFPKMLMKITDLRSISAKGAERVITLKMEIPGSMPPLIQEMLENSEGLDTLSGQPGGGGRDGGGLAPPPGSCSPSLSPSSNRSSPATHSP
T4 sequence (P19793 whole entry, further chain): as the sequence (P19793 whole entry) above
Sequence of RXRα (P19793 whole entry, one chain of several): as the sequence (P19793 whole entry) above
Sequence of LXRα/RXRα heterodimer (P19793 whole entry, one chain of several): as the sequence (P19793 whole entry) above

Molecule	LXRα activation of LXRE-containing luciferase reporter (TK-LXRE3-LUC) (hLXRα)	Ligand inducible transactivation by GAL4-RAR chimera (GAL4-RAR)	Ligand inducible transactivation by GAL4-LXR chimera (GAL4-LXR)	Ligand binding / specificity for RAR (RARs)	Ligand binding / specificity for RXR (RXRs)	also measured
CC1=C(/C=C/C(C)=C\C=C\C(C)=C\C(=O)O)C(C)(C)CCC1 [9cRA, 9-cis retinoic acid]	strongly activated	activates both RXR and RAR	no activation	high affinity ligand for both RARs and RXRs; also recorded: binds to both RXR and RAR	high affinity ligand for both RARs and RXRs; also recorded: binds to both RXR and RAR	–
C/C(=C\c1ccc(C(=O)O)cc1)c1ccc2c(c1)C(C)(C)CCC2(C)C [TTNPB, (E)-4-[2-(5,6,7,8-tetrahydro-5,5,8,8-tetramethyl-2-napthalenyl) -1-propenyl]benzoic acid]	no effect	–	no activation	RAR-specific	–	–
CC1=C(/C=C/C(C)=C/C=C/C(C)=C/C(=O)O)C(C)(C)CCC1 [atRA, All-trans retinoic acid]	–	–	–	ligand for only RARs	ligand for only RARs	–
COC(C)(C)CCCC(C)C/C=C/C(C)=C/C(=O)O (centres unmarked) [methoprene acid]	strongly activated; also recorded: strongly activates transcription	only activates RXR	no activation	–	RXR-specific	Ligand response of TK-LXRE2-LUC with LXRα alone (hLXRα; CV1 cells, 25 ng hLXRα, methoprene acid, FIG. 4): marked ligand response; Response of RXRE reporter TK-CRBPII-LUC in the presence of RXRα (hRXRα [1]; hRXRα transfected): marked response; Response of RXRE reporter TK-CRBPII-LUC with RARα or LXRα transfected instead of RXRα (hRXRα [1]): not RARα or LXRα; Retinoid response of RAR response element reporter (hRARα): occurs through an RXR homodimer; Ligand inducible transactivation by GAL4-RXR chimera (GAL4-RXR): only activates RXR; Retinoid responsive activity of TK-LXRE2-LUC with LXRα and RXRα together (LXR/RXR heterodimer): dramatic synergistic increase; Ligand response of TK-LXRE2-LUC with RXRα alone (hRXRα [2]): no response
B1	–	–	–	–	–	binding result (LXRα/RXRα heterodimer): binds; binding result (RXRα): no binding
